Laboratory results taken from patent publication US7572773B2, “Single dose fast dissolving azithromycin” (Pliva Hrvatska D.O.O., priority 2003, dated 2009).
Values belong to the compound of their own block, whether it stands above or below them.

Experiments:
clinical = conditions: human, in vivo, 500 mg
[1] = Analysis of adverse events observed during human PK study; type: in vivo
[2] = Comparative dissolution profiles of azithromycin polymorph Ik vs. dihydrate, USP Method 2; type: physicochemical; conditions: for percent dissolved: pH 6 (37° C.), USP Method 2
Description: In order to compare the behavior in vitro of the fast dissolving azithromycin polymorph (Formula Ik) with the commercial azithromycin dihydrate product, dissolution profiles have been determined at pH 6.0 at 37° C. The comparative dissolution profiles were determined by USP Method 2, PharmaTest Dissolution Tester, PTW SII; the content of dissolved azithromycin was measured by HPLC.

[3] = Human pharmacokinetic study, plasma concentration after GI site-specific administration of aqueous suspension; conditions: 500 mg aqueous suspension; for ΔIa/dihydrate, AUC / ΔIa/dihydrate, Cmax: Ia relative to dihydrate
[4] = Comparative dissolution profiles of azithromycin monohydrate Ia vs. dihydrate, USP Method 2; type: physicochemical; conditions: pH 1.2, 3.0, 6.0 and 6.8, 37° C., 900 ml buffer, 100 rpm, FIGS. 1-4
Description: In order to compare the behavior in vitro of the fast dissolving azithromycin monohydrate (Formula Ia) with the commercial azithromycin dihydrate product, dissolution profiles have been determined at pH 1.2, pH 3.0, pH 6.0, and pH 6.8, at 37° C. The comparative dissolution profiles were determined in 900 ml buffer solution, at 100 rpm, by USP Method 2, PharmaTest Dissolution Tester, PTW SII; the content of dissolved azithromycin was measured by HPLC. The data thus obtained are plotted in FIGS. 1-4, respectively.

[5] = In vivo rat pharmacokinetic study, plasma and whole blood concentration time curves after p.o. administration; conditions: rats, 50 mg/kg suspension; for ΔIa/dihydrate, Cmax / ΔIa/dihydrate, AUC(0-12): Ia relative to dihydrate; for ΔIa/dihydrate, AUC(0-12): monohydrate, 50 mg/kg
[6] = site-specific administration to duodenum
[7] = site-specific administration to jejunum
[8] = site-specific administration to stomach

Cmax (clinical): 0.094 µg/mL
percent dissolved ([2]; 5 minutes, listed as Commercial 9-deoxo-9a-aza-9a-methyl-9a-homoerythromycin A Dihydrate, dihydrate): 14.5%
percent dissolved ([2]; 10 minutes, listed as Commercial 9-deoxo-9a-aza-9a-methyl-9a-homoerythromycin A Dihydrate, dihydrate): 27.3%
percent dissolved ([2]; 20 minutes, listed as Commercial 9-deoxo-9a-aza-9a-methyl-9a-homoerythromycin A Dihydrate, dihydrate): 44.2%
percent dissolved ([2]; 45 minutes, listed as Commercial 9-deoxo-9a-aza-9a-methyl-9a-homoerythromycin A Dihydrate, dihydrate): 69.1%
SMILES: CC[C@H]1OC(=O)[C@H](C)[C@@H](O[C@H]2C[C@@](C)(OC)[C@@H](O)[C@H](C)O2)[C@H](C)[C@@H](O[C@@H]2O[C@H](C)C[C@H](N(C)C)[C@H]2O)[C@](C)(O)C[C@@H](C)CN(C)[C@H](C)[C@@H](O)[C@]1(C)O [Azithromycin Dihydrate, 9-deoxo-9a-aza-9a-methyl-9a-homoerythromycin A dihydrate]
adverse events with a possible causal relationship ([1]; human, in vivo): 3 events

percent dissolved ([2]; 5 minutes): 99.8%
percent dissolved ([2]; 10 minutes): 99.9%
percent dissolved ([2]; 20 minutes): 97.1%
percent dissolved ([2]; 45 minutes): 97.6%
dissolution profile compared to commercially available azithromycin dihydrate ([2]; pH 6.0, 37° C.): dissolves faster
SMILES: CC[C@H]1OC(=O)[C@H](C)[C@@H](O[C@H]2C[C@@](C)(OC)[C@@H](O)[C@H](C)O2)[C@H](C)[C@@H](O[C@@H]2O[C@H](C)C[C@H](N(C)C)[C@H]2O)[C@](C)(O)C[C@@H](C)CN(C)[C@H](C)[C@@H](O)[C@]1(C)O [Pseudopolymorph Ik, 9-deoxo-9a-aza-9a-methyl-9a-homoerythromycin A Pseudopolymorph Ik]

ΔIa/dihydrate, AUC ([3]; duodenum): −13%
ΔIa/dihydrate, Cmax ([3]; duodenum): +10%
ΔIa/dihydrate, AUC ([3]; jejunum): +98%
ΔIa/dihydrate, Cmax ([3]; jejunum): +60%
AUC [3, 6]: 719 nghr/ml
Cmax [3, 6]: 0.129 µg/mL
AUC [3, 7]: 836 nghr/ml
Cmax [3, 7]: 0.099 µg/mL
AUC [3, 8]: 813 nghr/ml
Cmax [3, 8]: 0.143 µg/mL
ΔIa/dihydrate, AUC ([3]; stomach): +19%
ΔIa/dihydrate, Cmax ([3]; stomach): +52%
dissolution profile compared to commercially available azithromycin dihydrate [4]: dissolves faster
AUC(0-12) ([5]; plasma): 5148 nghr/ml
Cmax ([5]; plasma): 1.006 µg/mL
ΔIa/dihydrate, Cmax ([5]; plasma): +37%
ΔIa/dihydrate, AUC(0-12) ([5]; plasma, listed as azithromycin monohydrate Ia): ~29%
ΔIa/dihydrate, AUC(0-12) ([5]; plasma): +29%
AUC(0-12) ([5]; whole blood): 21204 nghr/ml
Cmax ([5]; whole blood): 5.061 µg/mL
ΔIa/dihydrate, Cmax ([5]; whole blood): +97%
ΔIa/dihydrate, AUC(0-12) ([5]; whole blood, listed as azithromycin monohydrate Ia): approximately 27%
ΔIa/dihydrate, AUC(0-12) ([5]; whole blood): +27%
SMILES: CC[C@H]1OC(=O)[C@H](C)[C@@H](O[C@H]2C[C@@](C)(OC)[C@@H](O)[C@H](C)O2)[C@H](C)[C@@H](O[C@@H]2O[C@H](C)C[C@H](N(C)C)[C@H]2O)[C@](C)(O)C[C@@H](C)CN(C)[C@H](C)[C@@H](O)[C@]1(C)O.O [azithromycin monohydrate]
incidence of adverse effects compared to azithromycin dihydrate product ([1]; human PK study, single dose administration of a comparable amount): lower incidence of adverse effects
